Measurements taken from patent publication US8299048B2, “Hexahydrocyclopentyl[f]indazole sulfonamides and derivatives thereof as selective glucocorticoid receptor modulators” (Merck Sharp & Dohme Corp., priority 2008, dated 2012).

Target: T1, glucocorticoid receptor (Homo sapiens, UniProt P04150)
T1 construct: endogenous in cells
T1 sequence (P04150 1-777): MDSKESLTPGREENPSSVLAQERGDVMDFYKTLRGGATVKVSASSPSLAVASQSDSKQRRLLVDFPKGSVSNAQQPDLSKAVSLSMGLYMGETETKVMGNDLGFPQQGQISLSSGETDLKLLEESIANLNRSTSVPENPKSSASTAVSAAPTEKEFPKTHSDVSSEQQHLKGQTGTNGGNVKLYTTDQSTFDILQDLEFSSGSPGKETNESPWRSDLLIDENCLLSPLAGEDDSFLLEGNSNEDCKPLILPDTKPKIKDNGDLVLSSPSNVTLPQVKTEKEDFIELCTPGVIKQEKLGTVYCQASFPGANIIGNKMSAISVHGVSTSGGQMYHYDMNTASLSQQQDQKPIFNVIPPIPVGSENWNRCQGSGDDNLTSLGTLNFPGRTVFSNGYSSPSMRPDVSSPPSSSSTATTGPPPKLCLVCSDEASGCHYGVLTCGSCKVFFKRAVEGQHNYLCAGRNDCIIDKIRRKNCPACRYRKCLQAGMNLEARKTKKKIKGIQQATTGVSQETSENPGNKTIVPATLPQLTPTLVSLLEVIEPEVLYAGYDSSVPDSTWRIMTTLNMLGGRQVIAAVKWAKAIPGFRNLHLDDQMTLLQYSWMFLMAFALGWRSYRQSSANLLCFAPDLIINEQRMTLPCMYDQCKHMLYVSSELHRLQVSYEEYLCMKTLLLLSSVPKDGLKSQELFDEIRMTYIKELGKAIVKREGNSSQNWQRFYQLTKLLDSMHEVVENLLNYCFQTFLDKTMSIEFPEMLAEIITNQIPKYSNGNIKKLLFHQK
Assay: Ligand binding assay (GR BIND)
Outline: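 Cytosol from freeze–thawed cells in TEGM (pH 7.2, 10 mM molybdate) was incubated overnight at 4 °C with compound and [3H]-dexamethasone trace (added as 6 nM solution), 2% EtOH final. Bound ligand was captured on hydroxylapatite, filtered, washed and scintillation counted. Values were calculated with dexamethasone as reference.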

SMILES | Ki [nM]
C[C@]12Cc3cnn(-c4ccc(F)cc4)c3C=C1CC[C@@H]2CN(CC(O)c1ccncc1)S(=O)(=O)CC(F)(F)F (stereo partly drawn) [Example 144, 2,2,2-trifluoro-N-{[(4αR,5S)-1-(4-fluorophenyl)-4α-methyl-1,4,4α,5,6,7-hexahydrocyclopenta[f]indazol-5-yl]methyl}-N-(2-hydroxy-2-pyridin-4-ylethyl)ethanesulfonamide] | 0.9
CCCCCc1ccc(S(=O)(=O)N(CC2CC2)C[C@H]2CCC3=Cc4c(cnn4-c4ccc(F)cc4)C[C@@]32C)cc1 [Example 9, N-(cyclopropylmethyl)-N-{[(4αR,5S)-1-(4-fluorophenyl)-4α-methyl-1,4,4α,5,6,7-hexahydrocyclopenta[f]indazol-5-yl]methyl}-4-pentylbenzenesulfonamide] | 2.2
CC(C1CCC2=Cc3c(cnn3-c3ccc(F)cc3)C[C@@]21C)N(CC1CC1)S(=O)(=O)CC(F)(F)F (stereo partly drawn) [Example 109, N-(cyclopropylmethyl)-2,2,2-trifluoro-N-{1-[(4αR)-1-(4-fluorophenyl)-4α-methyl-1,4,4α,5,6,7-hexahydrocyclopenta[f]indazol-5-yl]ethyl}ethanesulfonamide] | 2.1
C[C@@H](O)CN(C[C@H]1CCC2=Cc3c(cnn3-c3ccc(F)cc3)C[C@@]21C)S(=O)(=O)c1ccc(F)c(Cl)c1 [Example 115, 3-chloro-4-fluoro-N-{[(4αR,5S)-1-(4-fluorophenyl)-4α-methyl-1,4,4α,5,6,7-hexahydrocyclopenta[f]indazol-5-yl]methyl}-N-[(2R)-2-hydroxypropyl]benzenesulfonamide] | 2.9
C[C@]12Cc3cnn(-c4ccc(F)cc4)c3C=C1CC[C@@H]2CN(CC(OS(=O)(=O)CC(F)(F)F)c1ccccn1)S(=O)(=O)CC(F)(F)F (stereo partly drawn) [Example 145, 2-{{[(4αR,5S)-1-(4-fluorophenyl)-4α-methyl-1,4,4α,5,6,7-hexahydrocyclopenta[f]indazol-5-yl]methyl}[(2,2,2-trifluoroethyl)sulfonyl]amino}-1-pyridin-2-ylethyl 2,2,2-trifluoroethanesulfonate] | 1
COCCN(C[C@H]1CCC2=Cc3c(cnn3-c3ccc(F)cc3)C[C@@]21C)S(C)(=O)=O [Example 96, N-{[(4αR,5S)-1-(4-fluorophenyl)-4α-methyl-1,4,4α,5,6,7-hexahydrocyclopenta[f]indazol-5-yl]methyl}-N-(2-methoxyethyl)methanesulfonamide] | 1.1
C[C@]12Cc3cnn(-c4ccc(F)cc4)c3C=C1CC[C@@H]2CN(CCc1ccccn1)S(=O)(=O)Cc1ccccc1C(F)(F)F [Example 153, N-{[(4αR,5S)-1-(4-fluorophenyl)-4α-methyl-1,4,4α,5,6,7-hexahydrocyclopenta[f]indazol-5-yl]methyl}-N-(2-pyridin-2-ylethyl)-1-[2-(trifluoromethyl)phenyl]methanesulfonamide] | 1.2
CCCS(=O)(=O)N(CCc1ccccn1)C[C@H]1CCC2=Cc3c(cnn3-c3ccc(F)cc3)C[C@@]21C [Example 151, N-{[(4αR,5S)-1-(4-fluorophenyl)-4α-methyl-1,4,4α,5,6,7-hexahydrocyclopenta[f]indazol-5-yl]methyl}-N-(2-pyridin-2-ylethyl)propane-1-sulfonamide] | 1.3
CCCS(=O)(=O)N(CC(O)C(F)(F)F)C[C@H]1CCC2=Cc3c(cnn3-c3ccc(F)cc3)C[C@@]21C (stereo partly drawn) [Example 148, N-{[(4αR,5S)-1-(4-fluorophenyl)-4α-methyl-1,4,4α,5,6,7-hexahydrocyclopenta[f]indazol-5-yl]methyl}-N-(3,3,3-trifluoro-2-hydroxypropyl)propane-1-sulfonamide] | 1.6
Cc1noc(C)c1S(=O)(=O)N(CCc1ccccc1O)C[C@H]1CCC2=Cc3c(cnn3-c3ccc(F)cc3)C[C@@]21C [Example 123, N-{[(4αR,5S)-1-(4-fluorophenyl)-4α-methyl-1,4,4α,5,6,7-hexahydrocyclopenta[f]indazol-5-yl]methyl}-N-[2-(2-hydroxyphenyl)ethyl]-3,5-dimethylisoxazole-4-sulfonamide] | 0.9
C[C@]12Cc3cnn(-c4ccc(F)cc4)c3C=C1CC[C@@H]2CN(CC1(O)CC1)S(=O)(=O)CC(F)(F)F [Example 135, 2,2,2-trifluoro-N-{[(4αR,5S)-1-(4-fluorophenyl)-4α-methyl-1,4,4α,5,6,7-hexahydrocyclopenta[f]indazol-5-yl]methyl}-N-[(1-hydroxycyclopropyl)methyl]ethanesulfonamide] | 2.9
C[C@]12Cc3cnn(-c4ccc(F)cc4)c3C=C1CC[C@@H]2CN(CCc1ccc(O)cc1)S(=O)(=O)CC(F)(F)F [Example 130, 2,2,2-trifluoro-N-{[(4αR,5S)-1-(4-fluorophenyl)-4α-methyl-1,4,4α,5,6,7-hexahydrocyclopenta[f]indazol-5-yl]methyl}-N-[2-(4-hydroxyphenyl)ethyl]ethanesulfonamide] | 1.8
C[C@]12Cc3cnn(-c4ccc(F)cc4)c3C=C1CC[C@@H]2CN(CCc1ccccc1F)S(=O)(=O)c1ccccc1Cl [Example 100, 2-chloro-N-[2-(2-fluorophenyl)ethyl]-N-{[(4αR,5S)-1-(4-fluorophenyl)-4α-methyl-1,4,4α,5,6,7-hexahydrocyclopenta[f]indazol-5-yl]methyl}benzenesulfonamide] | 2.1
C[C@H](O)CN(C[C@H]1CCC2=Cc3c(cnn3-c3ccc(F)cc3)C[C@@]21C)S(=O)(=O)c1ccc(F)c(Cl)c1 [Example 112, 3-chloro-4-fluoro-N-{[(4αR,5S)-1-(4-fluorophenyl)-4α-methyl-1,4,4α,5,6,7-hexahydrocyclopenta[f]indazol-5-yl]methyl}-N-[(2S)-2-hydroxypropyl]benzenesulfonamide] | 1.7
Cn1cc(S(=O)(=O)N(CCc2ccccc2F)C[C@H]2CCC3=Cc4c(cnn4-c4ccc(F)cc4)C[C@@]32C)c(C(F)(F)F)n1 [Example 98, N-[2-(2-fluorophenyl)ethyl]-N-{[(4αR,5S)-1-(4-fluorophenyl)-4α-methyl-1,4,4α,5,6,7-hexahydrocyclopenta[f]indazol-5-yl]methyl}-1-methyl-3-(trifluoromethyl)-1H-pyrazole-4-sulfonamide] | 1.5
Cn1cc(S(=O)(=O)N(CCc2ccccn2)C[C@H]2CCC3=Cc4c(cnn4-c4ccc(F)cc4)C[C@@]32C)c(C(F)(F)F)n1 [Example 150, N-{[(4αR,5S)-1-(4-fluorophenyl)-4α-methyl-1,4,4α,5,6,7-hexahydrocyclopenta[f]indazol-5-yl]methyl}-1-methyl-N-(2-pyridin-2-ylethyl)-3-(trifluoromethyl)-1H-pyrazole-4-sulfonamide] | 1.5
C[C@]12Cc3cnn(-c4ccc(F)cc4)c3C=C1CC[C@@H]2CN(CCc1ccccc1F)S(=O)(=O)Cc1cccc(Cl)c1 [Example 106, 1-(3-chlorophenyl)-N-[2-(2-fluorophenyl)ethyl]-N-{[(4αR,5S)-1-(4-fluorophenyl)-4α-methyl-1,4,4α,5,6,7-hexahydrocyclopenta[f]indazol-5-yl]methyl}methanesulfonamide] | 1.7
COc1ccc(CCN(C[C@H]2CCC3=Cc4c(cnn4-c4ccc(F)cc4)C[C@@]32C)S(=O)(=O)CC(F)(F)F)cc1 [Example 127, 2,2,2-trifluoro-N-{[(4αR,5S)-1-(4-fluorophenyl)-4α-methyl-1,4,4α,5,6,7-hexahydrocyclopenta[f]indazol-5-yl]methyl}-N-[2-(4-methoxyphenyl)ethyl]ethanesulfonamide] | 1.1
